Assay results from EP2415863A1, “Mutant glucose oxidase” (B.R.A.I.N., priority 2010, dated 2012).

Tests used:
Type in all cases: biochemical
[1] = biological target: T1, Aspergillus niger glucose oxidase (GOx) variant M12, N2Y, K13E, T30V, I94V, K152R, SEQ ID NO: 1 (Aspergillus niger, UniProt P13006, I116V/K174R/K35E/N24Y/T52V); experiment: Kinetic constants by ABTS assay, GOx mutant M12; settings: as restated in the description text
T1 construct: made in house; host or cells: Saccharomyces cerevisiae (pYES2)
T1 sequence (P13006 23-605 N24Y/K35E/T52V/I116V/K174R limits assumed): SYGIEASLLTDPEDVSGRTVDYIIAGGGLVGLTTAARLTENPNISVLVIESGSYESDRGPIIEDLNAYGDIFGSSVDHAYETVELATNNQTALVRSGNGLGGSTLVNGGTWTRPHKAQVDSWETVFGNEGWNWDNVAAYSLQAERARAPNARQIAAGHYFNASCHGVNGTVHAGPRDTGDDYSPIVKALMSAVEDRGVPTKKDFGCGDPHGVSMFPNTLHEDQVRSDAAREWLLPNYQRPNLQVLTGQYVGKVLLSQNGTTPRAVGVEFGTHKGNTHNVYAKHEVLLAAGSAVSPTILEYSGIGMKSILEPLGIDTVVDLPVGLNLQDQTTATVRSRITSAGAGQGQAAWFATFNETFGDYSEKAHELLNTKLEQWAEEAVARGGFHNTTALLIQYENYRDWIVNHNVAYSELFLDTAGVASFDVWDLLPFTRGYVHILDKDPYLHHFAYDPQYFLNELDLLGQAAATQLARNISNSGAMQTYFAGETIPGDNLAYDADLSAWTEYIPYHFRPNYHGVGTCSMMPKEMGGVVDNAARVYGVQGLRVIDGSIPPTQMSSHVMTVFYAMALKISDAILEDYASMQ
From the text: (§1) For detection of GOx activity the ABTS assay was used. 2,2'-azino-bis(3-ethylbenzthiazoline-6-sulphonic acid (ABTS) is commonly used as a substrate with hydrogen peroxide for a peroxidase generating enzyme. Its use allows the reaction kinetics of peroxidases to be followed, to indirectly follow the reaction kinetics of a hydrogen peroxide-producing enzyme or to quantify the amount of hydrogen peroxide in a sample [vanGijlswijk, R.P.M., et al., Fluorochrome-labeled tyramides: Use in immunocytochemistry and fluorescence in situ hybridization. Journal of Histochemistry & Cytochemistry, 1997. 45(3): p. 375-382].
(§2) The kinetic constants were determined using the Specord 200 from (Analytik Jena, Germany) and the ABTS assay [Zhu, Z.W., et al. 2006, Making glucose oxidase fit for biofuel cell applications by directed protein evolution. Biosensors & Bioelectronics, 21(11): 2046-2051]. The measurements were performed in 1 ml of reaction volume and 1 cm light pathway cuvettes, using 2.5, 5, 10, 25, 50 and 100 mM glucose. The data were fitted using Origin 6 (OriginLab Corporation, Northampton).

[2] = biological target: T2, Aspergillus niger glucose oxidase (GOx), wild type, SEQ ID NO: 3 (Aspergillus niger, UniProt P13006); experiment: Kinetic constants by ABTS assay, wt GOx; settings: 2.5-100 mM glucose
T2 construct: made in house; host or cells: Saccharomyces cerevisiae (pYES2 vector)
T2 sequence (P13006 23-605 limits assumed): as the sequence (P13006 23-605 N24Y/K35E/T52V/I116V/K174R limits assumed) above, with Y2N, E13K, V30T, V94I, R152K counted along it
From the text: as §1, §2

[3] = biological target: T3, Aspergillus niger glucose oxidase (GOx) parent mutant B11, T30V, I94V, SEQ ID NO: 5 (Aspergillus niger, UniProt P13006, I116V/T52V); experiment: Kinetic constants by ABTS assay, parent GOx B11; settings: as restated in the description text
T3 construct: made in house; host or cells: Saccharomyces cerevisiae (pYES2 plasmid B11 GOx)
T3 sequence (P13006 23-605 T52V/I116V limits assumed): as the sequence (P13006 23-605 N24Y/K35E/T52V/I116V/K174R limits assumed) above, with Y2N, E13K, R152K counted along it
From the text: as §1, §2

OC[C@H]1OC(O)[C@H](O)[C@@H](O)[C@@H]1O (stereo partly drawn) [glucose]
kcat [1]: 150 s⁻¹ | kcat [2]: 54.8 s' | kcat [3]: 80 s'
